Experiments:
Assay in all cases: Weeding effect in post-emergence stage
Format in all cases: in vivo
Conditions in all cases: active ingredient 2000 g/ha, 3 weeks after application, fresh weight control rate
Descurainia sophia = test system: Descurainia sophia
Procedure, shortened: (§1)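 Greenhouse-grown weeds at the 2-3 leaf stage, about 2 weeks after sowing, were sprayed with compound at 2000-125 g/ha. The spray solution was made from acetone with Tween 80 and 1.5 L/ha methyl oleate concentrate as synergist. Fresh-weight growth control was scored 3 weeks after treatment.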

[1] = test system: Amaranthus retroflexus L.
Procedure, shortened: as §1

Chenopodium album = test system: Chenopodium album
Procedure, shortened: as §1

Abutilon theophrasti = test system: Abutilon theophrasti
Procedure, shortened: as §1

SMILES | Weeding effect, activity level (growth control rate), Descurainia sophia (Descurainia sophia) | Weeding effect, activity level (growth control rate), Amaranthus retroflexus L. [1] | Weeding effect, activity level (growth control rate), Chenopodium album (Chenopodium album) | Weeding effect, activity level (growth control rate), Abutilon theophrasti (Abutilon theophrasti)
Cn1nnnc1NC(=O)c1ccnc(-c2cncnc2)c1Cl [Compound 1-156] | 5 (Level 5: growth control rate is above 85%) | 5 (Level 5: growth control rate is above 85%) | 5 (Level 5: growth control rate is above 85%) | 5 (Level 5: growth control rate is above 85%)
Cn1nnnc1NC(=O)c1ccnc(-c2cnc(Cl)nc2)c1Cl [Compound 1-157] | 5 (Level 5: growth control rate is above 85%) | 5 (Level 5: growth control rate is above 85%) | 5 (Level 5: growth control rate is above 85%) | 5 (Level 5: growth control rate is above 85%)
Cn1nnnc1NC(=O)c1ccnc(-c2cnc(F)nc2)c1Cl [Compound 1-158] | 5 (Level 5: growth control rate is above 85%) | 5 (Level 5: growth control rate is above 85%) | 5 (Level 5: growth control rate is above 85%) | 5 (Level 5: growth control rate is above 85%)
Cn1nnnc1NC(=O)c1ccnc(-c2cnc(C#N)nc2)c1Cl [Compound 1-159] | 5 (Level 5: growth control rate is above 85%) | 5 (Level 5: growth control rate is above 85%) | 5 (Level 5: growth control rate is above 85%) | 5 (Level 5: growth control rate is above 85%)
Cn1nnnc1NC(=O)c1ccnc(-c2cnc(N)nc2)c1Cl [Compound 1-160] | 5 (Level 5: growth control rate is above 85%) | 5 (Level 5: growth control rate is above 85%) | 5 (Level 5: growth control rate is above 85%) | 5 (Level 5: growth control rate is above 85%)
COc1ncc(-c2nccc(C(=O)Nc3nnnn3C)c2Cl)cn1 [Compound 1-161] | 5 (Level 5: growth control rate is above 85%) | 5 (Level 5: growth control rate is above 85%) | 5 (Level 5: growth control rate is above 85%) | 5 (Level 5: growth control rate is above 85%)
COc1ncc(-c2nccc(C(=O)Nc3nnnn3C)c2Cl)c(OC)n1 [Compound 1-162] | 5 (Level 5: growth control rate is above 85%) | 5 (Level 5: growth control rate is above 85%) | 5 (Level 5: growth control rate is above 85%) | 5 (Level 5: growth control rate is above 85%)
Cn1nnnc1NC(=O)c1ccnc(-c2ncc(C#N)cn2)c1Cl [Compound 1-163] | 5 (Level 5: growth control rate is above 85%) | 5 (Level 5: growth control rate is above 85%) | 5 (Level 5: growth control rate is above 85%) | 5 (Level 5: growth control rate is above 85%)
Cn1nnnc1NC(=O)c1ccnc(-c2ncc(F)cn2)c1Cl [Compound 1-164] | 5 (Level 5: growth control rate is above 85%) | 5 (Level 5: growth control rate is above 85%) | 5 (Level 5: growth control rate is above 85%) | 5 (Level 5: growth control rate is above 85%)
Cn1nnnc1NC(=O)c1ccnc(-c2ccnc(C#N)n2)c1Cl [Compound 1-165] | 5 (Level 5: growth control rate is above 85%) | 5 (Level 5: growth control rate is above 85%) | 5 (Level 5: growth control rate is above 85%) | 5 (Level 5: growth control rate is above 85%)
Cn1nnnc1NC(=O)c1ccnc(-n2cc(F)cn2)c1Cl [Compound 1-166] | 5 (Level 5: growth control rate is above 85%) | 5 (Level 5: growth control rate is above 85%) | 5 (Level 5: growth control rate is above 85%) | 5 (Level 5: growth control rate is above 85%)
Cn1nnnc1NC(=O)c1ccnc(-c2cn[nH]c2)c1Cl [Compound 1-167] | 5 (Level 5: growth control rate is above 85%) | 5 (Level 5: growth control rate is above 85%) | 5 (Level 5: growth control rate is above 85%) | 5 (Level 5: growth control rate is above 85%)
Cn1cc(-c2nccc(C(=O)Nc3nnnn3C)c2Cl)cn1 [Compound 1-168] | 5 (Level 5: growth control rate is above 85%) | 5 (Level 5: growth control rate is above 85%) | 5 (Level 5: growth control rate is above 85%) | 5 (Level 5: growth control rate is above 85%)
Cc1nn(C)cc1-c1nccc(C(=O)Nc2nnnn2C)c1Cl [Compound 1-169] | 5 (Level 5: growth control rate is above 85%) | 5 (Level 5: growth control rate is above 85%) | 5 (Level 5: growth control rate is above 85%) | 5 (Level 5: growth control rate is above 85%)
Cc1c(-c2nccc(C(=O)Nc3nnnn3C)c2Cl)cnn1C [Compound 1-170] | 5 (Level 5: growth control rate is above 85%) | 5 (Level 5: growth control rate is above 85%) | 5 (Level 5: growth control rate is above 85%) | 5 (Level 5: growth control rate is above 85%)
Cc1[nH]ncc1-c1nccc(C(=O)Nc2nnnn2C)c1Cl [Compound 1-171] | 5 (Level 5: growth control rate is above 85%) | 5 (Level 5: growth control rate is above 85%) | 5 (Level 5: growth control rate is above 85%) | 5 (Level 5: growth control rate is above 85%)
CCn1cc(-c2nccc(C(=O)Nc3nnnn3C)c2Cl)cn1 [Compound 1-172] | 5 (Level 5: growth control rate is above 85%) | 5 (Level 5: growth control rate is above 85%) | 5 (Level 5: growth control rate is above 85%) | 5 (Level 5: growth control rate is above 85%)
CCCn1cc(-c2nccc(C(=O)Nc3nnnn3C)c2Cl)cn1 [Compound 1-173] | 5 (Level 5: growth control rate is above 85%) | 5 (Level 5: growth control rate is above 85%) | 5 (Level 5: growth control rate is above 85%) | 5 (Level 5: growth control rate is above 85%)
Cn1nnnc1NC(=O)c1ccnc(-c2cnn(C(F)F)c2)c1Cl [Compound 1-174] | 5 (Level 5: growth control rate is above 85%) | 5 (Level 5: growth control rate is above 85%) | 5 (Level 5: growth control rate is above 85%) | 5 (Level 5: growth control rate is above 85%)
Cn1nnnc1NC(=O)c1ccnc(-c2cnn(Cc3ccccc3)c2)c1Cl [Compound 1-175] | 5 (Level 5: growth control rate is above 85%) | 5 (Level 5: growth control rate is above 85%) | 5 (Level 5: growth control rate is above 85%) | 5 (Level 5: growth control rate is above 85%)
CCOC(C)n1cc(-c2nccc(C(=O)Nc3nnnn3C)c2Cl)cn1 (stereo not shown) [Compound 1-176] | 5 (Level 5: growth control rate is above 85%) | 5 (Level 5: growth control rate is above 85%) | 5 (Level 5: growth control rate is above 85%) | 5 (Level 5: growth control rate is above 85%)
Cn1nnnc1NC(=O)c1ccnc(-c2ccn[nH]2)c1Cl [Compound 1-177] | 5 (Level 5: growth control rate is above 85%) | 5 (Level 5: growth control rate is above 85%) | 5 (Level 5: growth control rate is above 85%) | 5 (Level 5: growth control rate is above 85%)
